Experimental data: patent publication US20240116985A1, “STAPLED PEPTIDES AND METHODS THEREOF” (priority 2020, published 2024)

Key:
[1] = target: T1, full-length B-Catenin (Uniprot ID P35222) (Homo sapiens, UniProt P35222); test: Alphascreen binding assay (beta-catenin / biotin-TCF4 10-53)
T1 construct: 65 nM full-length B-Catenin (Uniprot ID P35222)
T1 sequence (P35222 1-781): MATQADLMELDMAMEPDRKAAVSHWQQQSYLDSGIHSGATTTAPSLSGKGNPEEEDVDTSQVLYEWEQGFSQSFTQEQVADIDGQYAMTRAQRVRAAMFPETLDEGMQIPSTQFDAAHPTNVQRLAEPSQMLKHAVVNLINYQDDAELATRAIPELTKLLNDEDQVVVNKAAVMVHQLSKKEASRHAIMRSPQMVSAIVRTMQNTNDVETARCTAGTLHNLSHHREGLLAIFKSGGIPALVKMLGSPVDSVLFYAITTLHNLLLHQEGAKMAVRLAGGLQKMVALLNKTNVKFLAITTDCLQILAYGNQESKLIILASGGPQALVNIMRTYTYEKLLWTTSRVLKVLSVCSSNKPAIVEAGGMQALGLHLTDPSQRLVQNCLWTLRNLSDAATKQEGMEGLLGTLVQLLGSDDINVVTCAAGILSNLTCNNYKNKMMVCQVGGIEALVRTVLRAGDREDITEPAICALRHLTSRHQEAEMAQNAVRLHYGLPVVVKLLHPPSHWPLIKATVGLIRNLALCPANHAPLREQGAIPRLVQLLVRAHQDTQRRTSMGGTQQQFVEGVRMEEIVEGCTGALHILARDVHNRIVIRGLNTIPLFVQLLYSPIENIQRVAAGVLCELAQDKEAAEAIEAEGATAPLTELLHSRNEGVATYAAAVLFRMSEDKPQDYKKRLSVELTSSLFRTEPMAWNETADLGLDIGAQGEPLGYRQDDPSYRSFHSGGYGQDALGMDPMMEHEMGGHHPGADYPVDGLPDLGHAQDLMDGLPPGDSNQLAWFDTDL
Method: In some embodiments, an assay is an Alphascreen binding assay. A useful protocol is described below as an example.
Alphascreen binding assay: Using the AlphaScreen Histidine (Nickel Chelate) Detection Kit (PerkinElmer), peptide solutions were prepared in buffer (50 mM Tris pH 8.0, 250 mM NaCl, 2% glycerol, 0.03% Tween-20, 0.01% TritonX-100, 0.1% BSA w/v) using a 3-fold serial dilution from 10 uM to 5 nM. Probe solution (65 nM full-length B-Catenin (Uniprot ID P35222), mixed with 10 nM biotin labeled TCF4 residues 10-53 (Uniprot ID Q9NQB0) peptide in buffer) was prepared and 4 uL per well was plated in a white polystyrene 384-well plate (Corning). Equal volume of the titrated peptide was added to the plate and incubated for 15 minutes at 20° C. Then 4 uL of donor and 4 uL acceptor beads at 10 ug/mL were added to the plate, for a 16 uL reaction pool and protected from light for 60 minutes at 20° C. prior to read. Reads were performed on a CLARIOstar plate reader (BMG Labtech) in duplicate, and data were fitted to a 1:1 binding model with hill slope using an in-house script. All provided concentrations are final concentrations.

CHI Log D procedure = type: physicochemical; conditions: pH 7.4

SMILES | EC50 [1] [µM] | CHI Log D (CHI Log D procedure)
CC(=O)N[C@@H](Cc1ccccc1)C(=O)N[C@@H](CC(=O)O)C(=O)N[C@@H](C)C(=O)N[C@]1(C)CCCCCCC=CCOC(=O)N2CC[C@@](C(=O)N[C@@H](Cc3ccc(C(N)=O)cc3)C(=O)N[C@@H](Cc3c[nH]c4ccccc34)C(=O)N[C@@H](CCC(N)=O)C(N)=O)(C2)NC(=O)[C@H](C(C)C)NC(=O)[C@H](Cc2ccccc2)NC(=O)[C@H](C)NC(=O)[C@H](C)NC(=O)[C@H](CC(=O)O)NC(=O)[C@H](CC(=O)O)NC1=O [I-89, Ac-Phe-Asp-Ala-R8-Asp-Asp-Ala-Ala-Phe-Val-PyrS-4CBMF-Trp-Gln-NH2] | 5.64 | 0.967
CC(=O)N[C@@H](Cc1ccccc1)C(=O)N[C@@H](CC(=O)O)C(=O)N[C@@H](C)C(=O)N[C@]1(C)CCCCCCC=CCOC(=O)N2CC[C@@](C(=O)N[C@@H](Cc3ccccc3)C(=O)N[C@@H](Cc3c[nH]c4ccccc34)C(=O)N[C@@H](CCC(N)=O)C(N)=O)(C2)NC(=O)[C@H](C(C)C)NC(=O)[C@H](Cc2ccc(C(N)=O)cc2)NC(=O)[C@H](C)NC(=O)[C@H](C)NC(=O)[C@H](CC(=O)O)NC(=O)[C@H](CC(=O)O)NC1=O [I-91, Ac-Phe-Asp-Ala-R8-Asp-Asp-Ala-Ala-4CBMF-Val-PyrS-Phe-Trp-Gln-NH2] | 4.72 | 1.13
CC(=O)N[C@@H](Cc1ccccc1)C(=O)N[C@@H](CC(=O)O)C(=O)N[C@@H](C)C(=O)N[C@]1(C)CCCCCCC=CCOC(=O)N2CC[C@@](C(=O)N[C@@H](Cc3ccccc3)C(=O)N[C@@H](Cc3c[nH]c4ccccc34)C(=O)N[C@@H](CCC(N)=O)C(N)=O)(C2)NC(=O)[C@H](C(C)C)NC(=O)[C@H](Cc2ccccc2)NC(=O)[C@H](C)NC(=O)[C@H](C)NC(=O)[C@H](CCc2ccccc2)NC(=O)[C@H](CC(=O)O)NC1=O [I-97, Ac-Phe-Asp-Ala-R8-Asp-hPhe-Ala-Ala-Phe-Val-PyrS-Phe-Trp-Gln-NH2] | 7.01 | 2.062
COc1cccc(C[C@@H]2NC(=O)[C@H](C)NC(=O)[C@H](C)NC(=O)[C@H](CC(=O)O)NC(=O)[C@H](CC(=O)O)NC(=O)[C@](C)(NC(=O)[C@H](C)NC(=O)[C@H](CC(=O)O)NC(=O)[C@H](Cc3ccccc3)NC(C)=O)CCCCCCC=CCOC(=O)N3CC[C@@](C(=O)N[C@@H](Cc4ccccc4)C(=O)N[C@@H](Cc4c[nH]c5ccccc45)C(=O)N[C@@H](CCC(N)=O)C(N)=O)(C3)NC(=O)[C@H](C(C)C)NC2=O)c1 [I-103, Ac-Phe-Asp-Ala-R8-Asp-Asp-Ala-Ala-3OMeF-Val-PyrS-Phe-Trp-Gln-NH2] | 4.94 | 1.268
COc1cccc(C[C@@H]2NC(=O)[C@H](C)NC(=O)[C@H](C)NC(=O)[C@H](CC(=O)O)NC(=O)[C@H](CC(=O)O)NC(=O)[C@](C)(NC(=O)[C@H](C)NC(=O)[C@H](CC(=O)O)NC(=O)[C@H](Cc3ccccc3)NC(C)=O)CCCCCCC=CCOC(=O)N3CC[C@@](C(=O)N[C@@H](Cc4ccccc4)C(=O)N[C@@H](Cc4c[nH]c5ccccc45)C(=O)N[C@@H](CCC(N)=O)C(N)=O)(C3)NC(=O)[C@H](C(C)C)NC2=O)c1 [I-104, Ac-Phe-Asp-Ala-R8-Asp-Asp-Ala-Ala-3OMeF-Val-PyrS-Phe-Trp-Gln-NH2] | 6.17 | 1.333
CC(=O)N[C@@H](Cc1ccccc1)C(=O)N[C@@H](CC(=O)O)C(=O)N[C@@H](C)C(=O)N[C@]1(C)CCCCCCC=CCOC(=O)N2CC[C@@](C(=O)N[C@@H](Cc3ccccc3)C(=O)N[C@@H](Cc3c[nH]c4ccccc34)C(=O)N[C@@H](CCC(N)=O)C(N)=O)(C2)NC(=O)[C@H](C(C)C)NC(=O)[C@H](Cc2cccc(C(N)=O)c2)NC(=O)[C@H](C)NC(=O)[C@H](C)NC(=O)[C@H](CC(=O)O)NC(=O)[C@H](CC(=O)O)NC1=O [I-109, Ac-Phe-Asp-Ala-R8-Asp-Asp-Ala-Ala-3CBMF-Val-PyrS-Phe-Trp-Gln-NH2] | 8.82 | 1.223
CC(=O)N[C@@H](Cc1ccccc1)C(=O)N[C@@H](CC(=O)O)C(=O)N[C@@H](C)C(=O)N[C@]1(C)CCCCCCC=CCOC(=O)N2CC[C@@](C(=O)N[C@@H](Cc3ccc(C(=O)O)cc3)C(=O)N[C@@H](Cc3c[nH]c4ccccc34)C(=O)N[C@@H](CCC(N)=O)C(N)=O)(C2)NC(=O)[C@H](C(C)C)NC(=O)[C@H](Cc2ccccc2)NC(=O)[C@H](C)NC(=O)[C@H](C)NC(=O)[C@H](CC(=O)O)NC(=O)[C@H](CC(=O)O)NC1=O [I-110, Ac-Phe-Asp-Ala-R8-Asp-Asp-Ala-Ala-Phe-Val-PyrS-4COOHF-Trp-Gln-NH2] | 8.5 | 0.769
CC(=O)N[C@@H](Cc1ccccc1)C(=O)N[C@@H](CC(=O)O)C(=O)N[C@@H](C)C(=O)N[C@]1(C)CCCCCCC=CCOC(=O)N2CC[C@@](C(=O)N[C@@H](Cc3ccc(C(=O)O)cc3)C(=O)N[C@@H](Cc3c[nH]c4ccccc34)C(=O)N[C@@H](CCC(N)=O)C(N)=O)(C2)NC(=O)[C@H](C(C)C)NC(=O)[C@H](Cc2ccccc2)NC(=O)[C@H](C)NC(=O)[C@H](C)NC(=O)[C@H](CC(=O)O)NC(=O)[C@H](CC(=O)O)NC1=O [I-111, Ac-Phe-Asp-Ala-R8-Asp-Asp-Ala-Ala-Phe-Val-PyrS-4COOHF-Trp-Gln-NH2] | 7.64 | 0.779
CC(=O)N[C@@H](Cc1ccccc1)C(=O)N[C@@H](CC(=O)O)C(=O)N[C@@H](C)C(=O)N[C@]1(C)CCCCCCC=CCOC(=O)N2CC[C@@](C(=O)N[C@@H](Cc3ccccc3)C(=O)N[C@@H](Cc3c[nH]c4ccccc34)C(=O)N[C@@H](CCC(N)=O)C(N)=O)(C2)NC(=O)[C@H](C(C)C)NC(=O)[C@H](Cc2ccc3ccccc3c2)NC(=O)[C@H](C)NC(=O)[C@H](C)NC(=O)[C@H](CC(=O)O)NC(=O)[C@H](CC(=O)O)NC1=O [I-113, Ac-Phe-Asp-Ala-R8-Asp-Asp-Ala-Ala-2NapA-Val-PyrS-Phe-Trp-Gln-NH2] | 6.2 | 1.435
CC(=O)N[C@@H](Cc1ccccc1)C(=O)N[C@@H](CC(=O)O)C(=O)N[C@@H](C)C(=O)N[C@]1(C)CCCCCCC=CCOC(=O)N2CC[C@@](C(=O)N[C@@H](Cc3ccccc3)C(=O)N[C@@H](Cc3c[nH]c4ccccc34)C(=O)N[C@@H](CCC(N)=O)C(N)=O)(C2)NC(=O)[C@H](C(C)C)NC(=O)[C@H](CCc2ccc(O)cc2)NC(=O)[C@H](C)NC(=O)[C@H](C)NC(=O)[C@H](CC(=O)O)NC(=O)[C@H](CC(=O)O)NC1=O [I-119, Ac-Phe-Asp-Ala-R8-Asp-Asp-Ala-Ala-hTyr-Val-PyrS-Phe-Trp-Gln-NH2] | 4.94 | 1.17
CC(=O)N1CCC[C@]12CC=CCCCC1(CCCC=CCCCCCC[C@@](C)(C(=O)N[C@@H](Cc3ccccc3)C(=O)N[C@@H](Cc3c[nH]c4ccccc34)C(=O)N[C@@H](CCC(N)=O)C(N)=O)NC(=O)[C@H](C(C)C)NC(=O)[C@H](Cc3ccccc3)NC(=O)[C@H](C)NC(=O)[C@H](C)NC(=O)[C@H](CC(N)=O)NC(=O)[C@H](CC(=O)O)NC1=O)NC(=O)[C@H](C)NC(=O)[C@H](CC(=O)O)NC2=O (stereo partly drawn) [I-124, Ac-PL3-Asp-Ala-B5-Asp-Asn-Ala-Ala-Phe-Val-S8-Phe-Trp-Gln-NH2] | 1.28 | 2.252
CC(=O)N1CCC[C@]12CC=CCCCC1(CCCC=CCCCCCC[C@@](C)(C(=O)N[C@@H](Cc3ccccc3)C(=O)N[C@@H](Cc3c[nH]c4ccccc34)C(=O)N[C@@H](CCC(N)=O)C(N)=O)NC(=O)[C@H](C(C)C)NC(=O)[C@H](Cc3ccccc3)NC(=O)[C@H](C)NC(=O)[C@H](C)NC(=O)[C@H](CCC(N)=O)NC(=O)[C@H](CC(=O)O)NC1=O)NC(=O)[C@H](C)NC(=O)[C@H](CC(=O)O)NC2=O (stereo partly drawn) [I-126, Ac-PL3-Asp-Ala-B5-Asp-Gln-Ala-Ala-Phe-Val-S8-Phe-Trp-Gln-NH2] | 1.48 | 2.239
CC(=O)N1CCC[C@]12CC=CCCCC1(CCCC=CCOC(=O)N(C)CCC[C@@](C)(C(=O)N[C@@H](Cc3ccccc3)C(=O)N[C@@H](Cc3c[nH]c4ccccc34)C(=O)N[C@@H](CCC(N)=O)C(N)=O)NC(=O)[C@H](C(C)C)NC(=O)[C@H](Cc3ccccc3)NC(=O)[C@H](C)NC(=O)[C@H](C)NC(=O)[C@H](CCC(=O)O)NC(=O)[C@H](CC(=O)O)NC1=O)NC(=O)[C@H](C)NC(=O)[C@H](CC(=O)O)NC2=O (stereo partly drawn) [I-130, Ac-PL3-Asp-Ala-B5-Asp-Glu-Ala-Ala-Phe-Val-SeN-Phe-Trp-Gln-NH2] | 0.797 | 1.346
